Assay results published in article PMC5563081, “Modulating Protein-Protein Interactions of the Mitotic Polo-like Kinases to Target Mutant KRAS” (Cell Chemical Biology, 2017).

Columns and labels:
Assay in all cases: DiscoverX KINOMEscan
Assay type in all cases: binding
Conditions in all cases: read-out: % Control
[1] = target: T1, STK35 (Homo sapiens, UniProt Q8TDR2)
T1 construct: purchased DiscoverX KINOMEscan
Experimental: (§1) A panel of 55 proteins (comprising 51 human kinases structurally or functionally related to the PLKs, plus the kinase catalytic domains of PLK1, PLK2, PLK3 and PLK4) were selected for testing by DiscoverX using the KINOMEscan assay platform. Compounds were supplied as 40x DMSO stocks and were tested at a final concentration of 50μM for Poloppin and 5μM for Poloppin-II. Binding interactions were reported as percentage of control where lower numbers indicate stronger binding. A cut-off of <35% was applied to report significant binding.

[2] = target: T2, PLK4 kinase catalytic domain (Homo sapiens, UniProt O00444)
T2 construct: PLK4 kinase catalytic domain; purchased DiscoverX KINOMEscan
Experimental: as §1

[3] = target: T3, PKMYT1 (Homo sapiens, UniProt Q99640)
T3 construct: purchased DiscoverX KINOMEscan
T3 sequence (Q99640 whole entry): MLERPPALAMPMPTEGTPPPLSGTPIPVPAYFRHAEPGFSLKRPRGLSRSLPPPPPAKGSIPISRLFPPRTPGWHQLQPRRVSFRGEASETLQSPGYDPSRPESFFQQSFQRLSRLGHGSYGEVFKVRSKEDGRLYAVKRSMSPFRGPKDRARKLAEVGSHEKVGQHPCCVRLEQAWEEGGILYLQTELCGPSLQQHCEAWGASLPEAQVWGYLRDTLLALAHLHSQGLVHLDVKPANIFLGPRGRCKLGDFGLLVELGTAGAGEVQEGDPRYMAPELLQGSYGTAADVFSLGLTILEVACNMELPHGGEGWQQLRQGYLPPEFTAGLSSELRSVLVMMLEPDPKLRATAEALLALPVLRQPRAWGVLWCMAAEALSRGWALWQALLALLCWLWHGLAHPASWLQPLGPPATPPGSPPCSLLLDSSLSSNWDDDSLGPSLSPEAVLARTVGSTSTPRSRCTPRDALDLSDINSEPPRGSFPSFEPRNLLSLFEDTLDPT
Experimental: as §1

[4] = target: T4, WNK3 (Homo sapiens, UniProt Q9BYP7)
T4 construct: purchased DiscoverX KINOMEscan
Experimental: as §1

[5] = target: T5, TBK1 (Homo sapiens, UniProt Q9UHD2)
T5 construct: purchased DiscoverX KINOMEscan
Experimental: as §1

[6] = target: T6, CAMKK1 (Homo sapiens, UniProt Q8N5S9)
T6 construct: purchased DiscoverX KINOMEscan
Experimental: as §1

[7] = target: T7, ULK2 (Homo sapiens, UniProt Q8IYT8)
T7 construct: purchased DiscoverX KINOMEscan
Experimental: as §1

[8] = target: T8, IKBKB (Homo sapiens, UniProt O14920)
T8 construct: purchased DiscoverX KINOMEscan
Experimental: as §1

[9] = target: T9, EIF2AK2 (Homo sapiens, UniProt P19525)
T9 construct: purchased DiscoverX KINOMEscan
Experimental: as §1

[10] = target: T10, NEK11 (Homo sapiens, UniProt Q8NG66)
T10 construct: purchased DiscoverX KINOMEscan
T10 sequence (Q8NG66 whole entry): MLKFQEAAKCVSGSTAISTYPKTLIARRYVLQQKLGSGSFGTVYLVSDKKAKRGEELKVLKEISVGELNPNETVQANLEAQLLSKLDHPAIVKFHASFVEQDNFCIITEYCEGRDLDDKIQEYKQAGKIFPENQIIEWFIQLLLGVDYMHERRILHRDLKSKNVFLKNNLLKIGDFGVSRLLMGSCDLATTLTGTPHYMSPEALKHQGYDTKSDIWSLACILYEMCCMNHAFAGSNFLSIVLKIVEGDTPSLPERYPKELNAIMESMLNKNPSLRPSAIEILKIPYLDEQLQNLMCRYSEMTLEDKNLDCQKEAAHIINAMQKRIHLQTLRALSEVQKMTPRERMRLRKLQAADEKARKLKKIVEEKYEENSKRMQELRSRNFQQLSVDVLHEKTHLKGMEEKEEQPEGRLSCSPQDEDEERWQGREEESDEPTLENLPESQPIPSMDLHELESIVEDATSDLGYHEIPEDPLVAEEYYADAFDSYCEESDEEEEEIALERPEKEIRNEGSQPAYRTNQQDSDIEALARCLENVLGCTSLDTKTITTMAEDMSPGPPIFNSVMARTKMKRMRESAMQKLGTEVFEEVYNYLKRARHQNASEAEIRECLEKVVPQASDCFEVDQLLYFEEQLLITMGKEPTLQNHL
Experimental: as §1

[11] = target: T11, IKBKE (Homo sapiens, UniProt Q14164)
T11 construct: purchased DiscoverX KINOMEscan
Experimental: as §1

[12] = target: T12, CSNK2A1 (Homo sapiens, UniProt P68400)
T12 construct: purchased DiscoverX KINOMEscan
Experimental: as §1

[13] = target: T13, WNK2 (Homo sapiens, UniProt Q9Y3S1)
T13 construct: purchased DiscoverX KINOMEscan
Experimental: as §1

[14] = target: T14, PLK2 kinase catalytic domain (Homo sapiens, UniProt Q9NYY3)
T14 construct: PLK2 kinase catalytic domain; purchased DiscoverX KINOMEscan
Experimental: as §1

[15] = target: T15, AAK1 (Homo sapiens, UniProt Q2M2I8)
T15 construct: purchased DiscoverX KINOMEscan
Experimental: as §1

[16] = target: T16, NEK1 (Homo sapiens, UniProt Q96PY6)
T16 construct: purchased DiscoverX KINOMEscan
Experimental: as §1

[17] = target: T17, AURKC (Homo sapiens, UniProt Q9UQB9)
T17 construct: purchased DiscoverX KINOMEscan
Experimental: as §1

[18] = target: T18, TLK2 (Homo sapiens, UniProt Q86UE8)
T18 construct: purchased DiscoverX KINOMEscan
T18 sequence (Q86UE8 whole entry): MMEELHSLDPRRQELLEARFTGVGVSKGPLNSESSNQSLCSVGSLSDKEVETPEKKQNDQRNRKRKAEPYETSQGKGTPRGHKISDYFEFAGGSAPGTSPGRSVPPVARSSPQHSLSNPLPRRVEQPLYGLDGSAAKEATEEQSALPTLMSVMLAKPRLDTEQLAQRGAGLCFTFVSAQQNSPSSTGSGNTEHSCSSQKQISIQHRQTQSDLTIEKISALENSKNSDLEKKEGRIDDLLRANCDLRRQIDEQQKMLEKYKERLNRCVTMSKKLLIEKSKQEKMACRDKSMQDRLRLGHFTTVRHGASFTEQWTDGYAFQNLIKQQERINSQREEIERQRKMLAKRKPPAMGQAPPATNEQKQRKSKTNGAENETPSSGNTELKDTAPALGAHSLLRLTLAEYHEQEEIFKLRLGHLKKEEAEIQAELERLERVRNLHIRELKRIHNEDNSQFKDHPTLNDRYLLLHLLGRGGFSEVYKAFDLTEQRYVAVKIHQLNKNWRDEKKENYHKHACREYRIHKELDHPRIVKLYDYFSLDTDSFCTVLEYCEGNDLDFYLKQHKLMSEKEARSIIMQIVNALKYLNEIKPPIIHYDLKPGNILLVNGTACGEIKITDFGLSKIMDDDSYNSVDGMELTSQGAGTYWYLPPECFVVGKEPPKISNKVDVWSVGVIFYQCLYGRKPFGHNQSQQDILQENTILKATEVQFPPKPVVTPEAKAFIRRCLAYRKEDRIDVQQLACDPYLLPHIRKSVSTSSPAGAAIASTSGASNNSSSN
Experimental: as §1

[19] = target: T19, CAMKK2 (Homo sapiens, UniProt Q96RR4)
T19 construct: purchased DiscoverX KINOMEscan
T19 sequence (Q96RR4 whole entry): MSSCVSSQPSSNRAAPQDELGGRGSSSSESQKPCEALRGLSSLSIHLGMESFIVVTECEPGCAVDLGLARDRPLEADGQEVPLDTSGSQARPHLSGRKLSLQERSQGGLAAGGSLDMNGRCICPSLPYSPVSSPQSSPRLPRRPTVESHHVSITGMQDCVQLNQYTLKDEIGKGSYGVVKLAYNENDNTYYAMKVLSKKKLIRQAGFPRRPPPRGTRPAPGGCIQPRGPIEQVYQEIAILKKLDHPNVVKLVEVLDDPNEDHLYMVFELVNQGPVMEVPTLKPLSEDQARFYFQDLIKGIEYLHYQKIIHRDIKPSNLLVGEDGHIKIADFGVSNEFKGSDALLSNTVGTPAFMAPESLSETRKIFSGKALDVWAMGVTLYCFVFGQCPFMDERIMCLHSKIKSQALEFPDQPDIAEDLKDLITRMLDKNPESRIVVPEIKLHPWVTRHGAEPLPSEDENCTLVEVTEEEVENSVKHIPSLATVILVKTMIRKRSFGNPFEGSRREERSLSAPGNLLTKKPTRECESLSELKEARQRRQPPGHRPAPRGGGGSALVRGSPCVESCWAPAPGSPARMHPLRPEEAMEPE
Experimental: as §1

[20] = target: T20, NEK2 (Homo sapiens, UniProt P51955)
T20 construct: purchased DiscoverX KINOMEscan
T20 sequence (P51955 whole entry): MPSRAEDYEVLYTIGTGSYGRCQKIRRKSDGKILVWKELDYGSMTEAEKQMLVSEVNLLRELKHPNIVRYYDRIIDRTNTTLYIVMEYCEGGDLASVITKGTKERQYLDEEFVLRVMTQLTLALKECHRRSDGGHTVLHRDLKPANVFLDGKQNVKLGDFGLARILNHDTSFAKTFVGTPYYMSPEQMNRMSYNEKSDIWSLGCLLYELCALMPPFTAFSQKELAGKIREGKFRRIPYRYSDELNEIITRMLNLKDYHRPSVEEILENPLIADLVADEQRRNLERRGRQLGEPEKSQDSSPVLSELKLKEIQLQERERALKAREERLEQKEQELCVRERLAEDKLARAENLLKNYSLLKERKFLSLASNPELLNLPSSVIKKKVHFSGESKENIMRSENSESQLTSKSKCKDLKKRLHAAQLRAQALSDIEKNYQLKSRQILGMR
Experimental: as §1

[21] = target: T21, AURKA (Homo sapiens, UniProt O14965)
T21 construct: purchased DiscoverX KINOMEscan
Experimental: as §1

[22] = target: T22, GAK (Homo sapiens, UniProt O14976)
T22 construct: purchased DiscoverX KINOMEscan
Experimental: as §1

[23] = target: T23, NEK6 (Homo sapiens, UniProt Q9HC98)
T23 construct: purchased DiscoverX KINOMEscan
Experimental: as §1

[24] = target: T24, WEE2 (Homo sapiens, UniProt P0C1S8)
T24 construct: purchased DiscoverX KINOMEscan
Experimental: as §1

[25] = target: T25, BUB1 (Homo sapiens, UniProt O43683)
T25 construct: purchased DiscoverX KINOMEscan
Experimental: as §1

[26] = target: T26, ULK1 (Homo sapiens, UniProt O75385)
T26 construct: purchased DiscoverX KINOMEscan
Experimental: as §1

[27] = target: T27, BMP2K (Homo sapiens, UniProt Q9NSY1)
T27 construct: purchased DiscoverX KINOMEscan
Experimental: as §1

[28] = target: T28, WNK4 (Homo sapiens, UniProt Q96J92)
T28 construct: purchased DiscoverX KINOMEscan
T28 sequence (Q96J92 whole entry): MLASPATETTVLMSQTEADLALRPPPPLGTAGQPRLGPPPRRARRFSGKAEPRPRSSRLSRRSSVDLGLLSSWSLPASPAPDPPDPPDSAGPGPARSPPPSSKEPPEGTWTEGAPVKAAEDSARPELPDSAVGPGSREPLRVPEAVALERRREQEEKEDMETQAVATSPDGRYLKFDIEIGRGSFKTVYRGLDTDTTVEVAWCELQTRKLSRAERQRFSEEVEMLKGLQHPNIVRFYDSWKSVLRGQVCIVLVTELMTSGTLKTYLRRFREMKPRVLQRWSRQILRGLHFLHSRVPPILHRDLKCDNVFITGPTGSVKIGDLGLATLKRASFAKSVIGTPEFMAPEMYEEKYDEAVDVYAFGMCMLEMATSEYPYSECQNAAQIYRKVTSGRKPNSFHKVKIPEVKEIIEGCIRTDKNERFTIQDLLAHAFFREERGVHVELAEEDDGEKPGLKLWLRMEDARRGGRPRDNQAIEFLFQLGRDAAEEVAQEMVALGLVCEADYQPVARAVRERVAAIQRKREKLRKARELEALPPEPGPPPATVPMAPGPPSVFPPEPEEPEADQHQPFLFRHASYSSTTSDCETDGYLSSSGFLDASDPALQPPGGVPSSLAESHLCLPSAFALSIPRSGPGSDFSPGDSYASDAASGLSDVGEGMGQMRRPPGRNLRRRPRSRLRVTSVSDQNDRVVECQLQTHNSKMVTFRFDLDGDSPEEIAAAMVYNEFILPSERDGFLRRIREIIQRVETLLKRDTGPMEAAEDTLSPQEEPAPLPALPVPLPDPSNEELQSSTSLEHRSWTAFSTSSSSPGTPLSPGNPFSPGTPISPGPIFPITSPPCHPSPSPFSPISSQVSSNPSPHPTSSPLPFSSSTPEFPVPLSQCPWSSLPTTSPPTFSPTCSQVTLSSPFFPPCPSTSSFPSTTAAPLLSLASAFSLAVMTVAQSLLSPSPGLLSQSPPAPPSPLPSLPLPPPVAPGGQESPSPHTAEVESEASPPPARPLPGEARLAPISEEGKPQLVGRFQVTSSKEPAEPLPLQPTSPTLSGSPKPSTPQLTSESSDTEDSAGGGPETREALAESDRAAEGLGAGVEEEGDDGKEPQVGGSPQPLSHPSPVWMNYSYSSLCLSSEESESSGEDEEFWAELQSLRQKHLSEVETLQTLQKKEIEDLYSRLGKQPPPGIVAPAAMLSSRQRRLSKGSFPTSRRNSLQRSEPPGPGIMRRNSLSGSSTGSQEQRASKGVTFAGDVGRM
Experimental: as §1

[29] = target: T29, NEK10 (Homo sapiens, UniProt Q6ZWH5)
T29 construct: purchased DiscoverX KINOMEscan
Experimental: as §1

[30] = target: T30, NEK9 (Homo sapiens, UniProt Q8TD19)
T30 construct: purchased DiscoverX KINOMEscan
Experimental: as §1

[31] = target: T31, NEK3 (Homo sapiens, UniProt P51956)
T31 construct: purchased DiscoverX KINOMEscan
Experimental: as §1

[32] = target: T32, ERN1 (Homo sapiens, UniProt O75460)
T32 construct: purchased DiscoverX KINOMEscan
Experimental: as §1

[33] = target: T33, NEK7 (Homo sapiens, UniProt Q8TDX7)
T33 construct: purchased DiscoverX KINOMEscan
Experimental: as §1

[34] = target: T34, PLK1 kinase catalytic domain (Homo sapiens, UniProt P53350)
T34 construct: PLK1 kinase catalytic domain; purchased DiscoverX KINOMEscan
Experimental: as §1

[35] = target: T35, TLK1 (Homo sapiens, UniProt Q9UKI8)
T35 construct: purchased DiscoverX KINOMEscan
T35 sequence (Q9UKI8 whole entry): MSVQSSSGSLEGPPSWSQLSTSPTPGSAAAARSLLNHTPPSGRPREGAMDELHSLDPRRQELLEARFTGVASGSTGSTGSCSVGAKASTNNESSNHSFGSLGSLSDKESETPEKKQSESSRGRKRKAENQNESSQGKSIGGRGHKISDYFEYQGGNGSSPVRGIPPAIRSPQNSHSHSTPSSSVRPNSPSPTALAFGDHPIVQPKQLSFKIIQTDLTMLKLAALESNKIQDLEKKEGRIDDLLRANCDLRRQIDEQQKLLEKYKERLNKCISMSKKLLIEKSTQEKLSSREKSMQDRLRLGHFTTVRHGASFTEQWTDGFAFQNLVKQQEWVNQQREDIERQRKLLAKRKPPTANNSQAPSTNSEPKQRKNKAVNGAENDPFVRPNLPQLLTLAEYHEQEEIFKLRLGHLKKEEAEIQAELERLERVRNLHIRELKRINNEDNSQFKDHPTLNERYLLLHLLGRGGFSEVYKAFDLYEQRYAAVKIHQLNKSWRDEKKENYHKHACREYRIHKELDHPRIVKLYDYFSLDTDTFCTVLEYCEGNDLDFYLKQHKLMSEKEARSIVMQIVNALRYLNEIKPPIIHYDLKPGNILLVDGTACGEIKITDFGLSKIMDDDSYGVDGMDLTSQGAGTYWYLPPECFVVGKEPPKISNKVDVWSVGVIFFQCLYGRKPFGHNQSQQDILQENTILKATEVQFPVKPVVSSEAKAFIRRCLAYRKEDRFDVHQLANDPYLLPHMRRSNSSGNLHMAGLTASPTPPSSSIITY
Experimental: as §1

[36] = target: T36, NEK5 (Homo sapiens, UniProt Q6P3R8)
T36 construct: purchased DiscoverX KINOMEscan
Experimental: as §1

[37] = target: T37, WNK1 (Homo sapiens, UniProt Q9H4A3)
T37 construct: purchased DiscoverX KINOMEscan
Experimental: as §1

[38] = target: T38, WEE1 (Homo sapiens, UniProt P30291)
T38 construct: purchased DiscoverX KINOMEscan
Experimental: as §1

[39] = target: T39, STK36 (Homo sapiens, UniProt Q9NRP7)
T39 construct: purchased DiscoverX KINOMEscan
Experimental: as §1

[40] = target: T40, ROCK2 (Homo sapiens, UniProt O75116)
T40 construct: purchased DiscoverX KINOMEscan
Experimental: as §1

[41] = target: T41, DSTYK (Homo sapiens, UniProt Q6XUX3)
T41 construct: purchased DiscoverX KINOMEscan
Experimental: as §1

## CN(C)CCNC(=O)c1ccc(-c2ccc(-c3ccc(Cl)cc3)n2-c2ccccc2C(F)(F)F)cc1 [Poloppin-II]
[1]; STK35, Poloppin-II 5µM, hit <35%
  remaining binding at 5 µM: 71%
[2]; PLK4, Poloppin-II 5µM, hit <35%
  remaining binding at 5 µM: 90%
[3]; PKMYT1, Poloppin-II 5µM, hit <35%
  remaining binding at 5 µM: 100%
[4]; WNK3, Poloppin-II 5µM, hit <35%
  remaining binding at 5 µM: 100%
[5]; TBK1, Poloppin-II 5µM, hit <35%
  remaining binding at 5 µM: 80%
[6]; CAMKK1, Poloppin-II 5µM, hit <35%
  remaining binding at 5 µM: 91%
[7]; ULK2, Poloppin-II 5µM, hit <35%
  remaining binding at 5 µM: 100%
[8]; IKBKB, Poloppin-II 5µM, hit <35%
  remaining binding at 5 µM: 100%
[9]; EIF2AK2, Poloppin-II 5µM, hit <35%
  remaining binding at 5 µM: 90%
[10]; NEK11, Poloppin-II 5µM, hit <35%
  remaining binding at 5 µM: 100%
[11]; IKBKE, Poloppin-II 5µM, hit <35%
  remaining binding at 5 µM: 75%
[12]; CSNK2A1, Poloppin-II 5µM, hit <35%
  remaining binding at 5 µM: 96%
[13]; WNK2, Poloppin-II 5µM, hit <35%
  remaining binding at 5 µM: 100%
[14]; PLK2, Poloppin-II 5µM, hit <35%
  remaining binding at 5 µM: 85%
[15]; AAK1, Poloppin-II 5µM, hit <35%
  remaining binding at 5 µM: 100%
[16]; NEK1, Poloppin-II 5µM, hit <35%
  remaining binding at 5 µM: 100%
[17]; AURKC, Poloppin-II 5µM, hit <35%
  remaining binding at 5 µM: 85%
[18]; TLK2, Poloppin-II 5µM, hit <35%
  remaining binding at 5 µM: 94%
[19]; CAMKK2, Poloppin-II 5µM, hit <35%
  remaining binding at 5 µM: 97%
[20]; NEK2, Poloppin-II 5µM, hit <35%
  remaining binding at 5 µM: 94%
[21]; AURKA, Poloppin-II 5µM, hit <35%
  remaining binding at 5 µM: 83%
[22]; GAK, Poloppin-II 5µM, hit <35%
  remaining binding at 5 µM: 100%
[23]; NEK6, Poloppin-II 5µM, hit <35%
  remaining binding at 5 µM: 99%
[24]; WEE2, Poloppin-II 5µM, hit <35%
  remaining binding at 5 µM: 92%
[25]; BUB1, Poloppin-II 5µM, hit <35%
  remaining binding at 5 µM: 90%
[26]; ULK1, Poloppin-II 5µM, hit <35%
  remaining binding at 5 µM: 84%
[27]; BMP2K, Poloppin-II 5µM, hit <35%
  remaining binding at 5 µM: 85%
[28]; WNK4, Poloppin-II 5µM, hit <35%
  remaining binding at 5 µM: 91%
[29]; NEK10, Poloppin-II 5µM, hit <35%
  remaining binding at 5 µM: 94%
[30]; NEK9, Poloppin-II 5µM, hit <35%
  remaining binding at 5 µM: 92%
[31]; NEK3, Poloppin-II 5µM, hit <35%
  remaining binding at 5 µM: 74%
[32]; ERN1, Poloppin-II 5µM, hit <35%
  remaining binding at 5 µM: 74%
[33]; NEK7, Poloppin-II 5µM, hit <35%
  remaining binding at 5 µM: 79%
[34]; PLK1, Poloppin-II 5µM, hit <35%
  remaining binding at 5 µM: 100%
[35]; TLK1, Poloppin-II 5µM, hit <35%
  remaining binding at 5 µM: 99%
[36]; NEK5, Poloppin-II 5µM, hit <35%
  remaining binding at 5 µM: 99%
[37]; WNK1, Poloppin-II 5µM, hit <35%
  remaining binding at 5 µM: 97%
[38]; WEE1, Poloppin-II 5µM, hit <35%
  remaining binding at 5 µM: 98%
[39]; STK36, Poloppin-II 5µM, hit <35%
  remaining binding at 5 µM: 91%
[40]; ROCK2, Poloppin-II 5µM, hit <35%
  remaining binding at 5 µM: 100%
[41]; DSTYK, Poloppin-II 5µM, hit <35%
  remaining binding at 5 µM: 75%

## O=C(O)CCc1ccc(-c2ccc(Br)cc2)n1-c1ccccc1C(F)(F)F [Poloppin]
[1]
  remaining binding at 50 µM: 100%
[2]
  remaining binding at 50 µM: 88%
[3]
  remaining binding at 50 µM: 98%
[4]
  remaining binding at 50 µM: 100%
[5]
  remaining binding at 50 µM: 75%
[6]
  remaining binding at 50 µM: 77%
[7]
  remaining binding at 50 µM: 100%
[8]
  remaining binding at 50 µM: 100%
[9]
  remaining binding at 50 µM: 69%
[10]
  remaining binding at 50 µM: 100%
[11]
  remaining binding at 50 µM: 55%
[12]
  remaining binding at 50 µM: 87%
[13]
  remaining binding at 50 µM: 100%
[14]
  remaining binding at 50 µM: 78%
[15]
  remaining binding at 50 µM: 92%
[16]
  remaining binding at 50 µM: 57%
[17]
  remaining binding at 50 µM: 81%
[18]
  remaining binding at 50 µM: 90%
[19]
  remaining binding at 50 µM: 82%
[20]
  remaining binding at 50 µM: 95%
[21]
  remaining binding at 50 µM: 81%
[22]
  remaining binding at 50 µM: 100%
[23]
  remaining binding at 50 µM: 96%
[24]
  remaining binding at 50 µM: 86%
[25]
  remaining binding at 50 µM: 99%
[26]
  remaining binding at 50 µM: 84%
[27]
  remaining binding at 50 µM: 68%
[28]
  remaining binding at 50 µM: 100%
[29]
  remaining binding at 50 µM: 98%
[30]
  remaining binding at 50 µM: 95%
[31]
  remaining binding at 50 µM: 72%
[32]
  remaining binding at 50 µM: 76%
[33]
  remaining binding at 50 µM: 68%
[34]
  remaining binding at 50 µM: 100%
[35]
  remaining binding at 50 µM: 100%
[36]
  remaining binding at 50 µM: 83%
[37]
  remaining binding at 50 µM: 100%
[38]
  remaining binding at 50 µM: 99%
[39]
  remaining binding at 50 µM: 91%
[40]
  remaining binding at 50 µM: 100%
[41]
  remaining binding at 50 µM: 49%
